Assays:
RPS6KA1 = target: T1, RPS6KA1 (Homo sapiens, UniProt Q15418); assay: Expression proteomics in THP-1 cells: RPS6KA1 protein level; format: cell-based; details: RPS6KA1, THP-1 cells
T1 construct: endogenous in cells; host or cells: THP-1
Experimental: (§1) THP-1 cells were seeded at a concentration of 3×10^6 cells in T175 flasks with 60 mL growth medium (RPMI1640+10% FBS). […] of a 10× compound solution prepared in growth medium (DMSO), CEREBLON_PROTAC) was added and the cells were treated for the indicated time points (6 or 24 h) at 37° C., 5% CO2. For harvesting the cells were collected into falcon tubes on ice, centrifuged and washed twice in cold PBS (Life technologies). After the last washing step the supernatant was removed and the pellets were snap-frozen in liquid N2 and stored at −80° C. and lysed in 2% SDS for 3 min at 95° C. in a thermomixer (Thermo Fisher Scientific), followed by digestion of DNA with Benzonase at 37° C. for 1.5 h. Lysate was cleared by centrifugation an protein concentration in supernatant was determined by BCA assay.
(§2) Leukemia 25, 89-100 (2011).
(§3) Samples were dried in vacuo and resuspended in 0.05% trifluoroacetic acid in water. Of the sample, 50% was injected into an Ultimate3000 nanoRLSC (Dionex, Sunnyvale, Calif.) coupled to a Q Exactive HF (Thermo Fisher Scientific). Peptides were trapped on a 5 mm×300 μm C18 column (Pepmap100, 5 μm, 300 Å, Thermo Fisher Scientific) in water with 0.05% TFA at 60° C. Separation was performed on custom 50 cm×[…] (ID) reversed-phase columns (Reprosil) at 55° C. Gradient elution was performed from 2% acetonitrile to 40% acetonitrile in 0.1% formic acid and 3.5% DMSO over 2 hours. Samples were online injected into Q-Exactive HF mass spectrometers operating with a data-dependent top 10 method. MS spectra were acquired by using 60.000 resolution and an ion target of 3×10^6. Higher energy collisional dissociation (HCD) scans were performed with 35% NCE at 30.000 resolution (at m/z 200), and the ion target settings was set to 2×10^5 so as to avoid coalescence (Werner, T. et al. Ion Coalescence of Neutron Encoded TMT 10-Plex Reporter Ions. Anal. Chem. 86, 3594-3601 (2014).
(§4) The first search was performed with 30 parts per million mass tolerance for peptide precursors and 30 mD (HCD) mass tolerance for fragment ions followed by a final search using recalibrated data with a 10 parts per million mass tolerance for peptide precursors and 20 mD (HCD) mass tolerance for fragment ions. Carbamidomethylation of cysteine residues and TMT modification of lysine residues were set as fixed modifications and methionine oxidation, and N-terminal acetylation of proteins and TMT modification of peptide N-termini were set as variable modifications. […]
(§5) Nat Biotech 29, 255-265 (2011). this measure is referred to as ion area Savitski, M. M. et al. Delayed Fragmentation and Optimized Isolation Width Settings for Improvement of Protein Identification and Accuracy of Isobaric Mass Tag Quantification on Orbitrap-Type Mass Spectrometers. […]

MAPK9 = target: T2, MAPK9 (Homo sapiens, UniProt P45984); assay: Expression proteomics in THP-1 cells: MAPK9 protein level; format: cell-based; details: MAPK9, THP-1 cells
T2 construct: endogenous in cells; host or cells: THP-1
Experimental: as §1, §2, §3, §4, §5

T1 sequence (Q15418 whole entry): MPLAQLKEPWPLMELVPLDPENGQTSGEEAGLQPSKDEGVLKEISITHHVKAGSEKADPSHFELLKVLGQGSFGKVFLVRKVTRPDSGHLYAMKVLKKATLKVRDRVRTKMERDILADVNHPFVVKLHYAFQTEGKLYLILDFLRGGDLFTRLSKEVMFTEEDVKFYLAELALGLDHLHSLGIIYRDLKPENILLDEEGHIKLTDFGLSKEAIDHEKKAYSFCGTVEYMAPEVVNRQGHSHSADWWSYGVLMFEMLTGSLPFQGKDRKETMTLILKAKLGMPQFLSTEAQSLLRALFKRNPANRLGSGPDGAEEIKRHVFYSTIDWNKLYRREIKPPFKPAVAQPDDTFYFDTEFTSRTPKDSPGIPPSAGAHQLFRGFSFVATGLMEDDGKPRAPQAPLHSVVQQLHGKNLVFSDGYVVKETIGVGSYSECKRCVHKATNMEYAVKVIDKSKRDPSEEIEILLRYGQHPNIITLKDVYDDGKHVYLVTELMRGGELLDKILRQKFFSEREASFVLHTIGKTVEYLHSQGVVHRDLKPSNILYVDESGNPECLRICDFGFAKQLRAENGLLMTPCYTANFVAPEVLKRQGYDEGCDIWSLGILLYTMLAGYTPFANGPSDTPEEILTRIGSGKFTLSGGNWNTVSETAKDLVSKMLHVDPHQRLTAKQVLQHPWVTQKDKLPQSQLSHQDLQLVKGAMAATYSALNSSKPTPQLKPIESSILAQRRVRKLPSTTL
T2 sequence (P45984 whole entry): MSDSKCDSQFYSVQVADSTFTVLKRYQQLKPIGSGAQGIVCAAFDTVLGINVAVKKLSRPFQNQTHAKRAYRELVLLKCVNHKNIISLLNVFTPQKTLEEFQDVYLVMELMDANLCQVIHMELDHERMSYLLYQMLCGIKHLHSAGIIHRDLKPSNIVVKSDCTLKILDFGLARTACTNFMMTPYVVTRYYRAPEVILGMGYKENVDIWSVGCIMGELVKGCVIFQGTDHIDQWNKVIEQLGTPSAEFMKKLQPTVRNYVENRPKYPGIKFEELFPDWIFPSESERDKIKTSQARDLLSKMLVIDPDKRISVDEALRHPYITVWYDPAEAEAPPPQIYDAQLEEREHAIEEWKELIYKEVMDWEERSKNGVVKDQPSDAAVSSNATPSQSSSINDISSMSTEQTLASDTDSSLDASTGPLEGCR

log2 rel. fc. to vehicle control (RPS6KA1; 24 h 0.1 μM, n = 1): −1.65 | log2 rel. fc. to vehicle control (RPS6KA1; 24 h 0.1 μM, n = 2): −1.55 | log2 rel. fc. to vehicle control (RPS6KA1; 24 h 1 μM, n = 1): −1.86 | log2 rel. fc. to vehicle control (RPS6KA1; 24 h 1 μM, n = 2): −1.93 | log2 rel. fc. to vehicle control (MAPK9; 24 h 0.1 μM, n = 1): −0.69 | log2 rel. fc. to vehicle control (MAPK9; 24 h 0.1 μM, n = 2): −0.98 | log2 rel. fc. to vehicle control (MAPK9; 24 h 1 μM, n = 1): −1.83 | log2 rel. fc. to vehicle control (MAPK9; 24 h 1 μM, n = 2): −1.75
SMILES: CNC(=O)c1ccccc1Nc1nc(Nc2ccc(N3CCN(CCOCCOCCOCCOCC(=O)Nc4cccc5c4CN(C4CCC(=O)NC4=O)C5=O)CC3)cc2)ncc1Cl.O=CO (centres unmarked) [CEREBLON_PROTAC, 14-(4-(4-((5-Chloro-4-((2-(methylcarbamoyl)phenyl)amino)pyrimidin-2-yl)amino)phenyl)piperazin-1-yl)-N-(2-(2,6-dioxopiperidin-3-yl)-1-oxoisoindolin-4-yl)-3,6,9,12-tetraoxatetradecan-1-amide formate]

Reference: US20190210996A1, “NOVEL COMPOUNDS” (GLAXOSMITHKLINE INTELLECTUAL PROPERTY DEVELOPMENT LIMITED, priority 2016, published 2019)
